Experimental data taken from US6673565B2 (priority 1999, dated 2004).

Legend:
Butyrylcholinesterase = Butyrylcholinesterase (Homo sapiens, UniProt P06276); format: biochemical
Urease = Urease (Canavalia ensiformis, UniProt P07374); format: biochemical
Urease, sequence (P07374 whole entry, looked up): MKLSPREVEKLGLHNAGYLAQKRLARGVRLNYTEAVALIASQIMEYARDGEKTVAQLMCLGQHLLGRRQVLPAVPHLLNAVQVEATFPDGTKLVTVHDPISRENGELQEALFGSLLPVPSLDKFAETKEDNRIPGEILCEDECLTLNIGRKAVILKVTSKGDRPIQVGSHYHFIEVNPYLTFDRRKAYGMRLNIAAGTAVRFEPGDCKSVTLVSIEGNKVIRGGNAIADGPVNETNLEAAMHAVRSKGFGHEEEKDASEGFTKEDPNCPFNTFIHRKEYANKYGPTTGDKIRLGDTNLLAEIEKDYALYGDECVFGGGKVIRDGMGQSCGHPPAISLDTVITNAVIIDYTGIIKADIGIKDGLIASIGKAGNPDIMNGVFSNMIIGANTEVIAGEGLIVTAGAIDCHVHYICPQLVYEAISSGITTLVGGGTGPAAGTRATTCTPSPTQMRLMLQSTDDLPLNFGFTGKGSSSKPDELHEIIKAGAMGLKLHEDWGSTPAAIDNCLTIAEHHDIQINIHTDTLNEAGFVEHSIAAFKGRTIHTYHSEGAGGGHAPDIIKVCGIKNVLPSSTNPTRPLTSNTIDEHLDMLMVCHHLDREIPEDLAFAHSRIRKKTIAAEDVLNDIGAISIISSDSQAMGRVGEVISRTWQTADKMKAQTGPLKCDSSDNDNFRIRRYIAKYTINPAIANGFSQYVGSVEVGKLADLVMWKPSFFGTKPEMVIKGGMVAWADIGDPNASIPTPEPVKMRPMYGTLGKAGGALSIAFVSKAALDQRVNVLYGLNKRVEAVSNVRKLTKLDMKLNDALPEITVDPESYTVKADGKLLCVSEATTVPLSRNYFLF

Butyrylcholinesterase, sequence (P06276 29-602): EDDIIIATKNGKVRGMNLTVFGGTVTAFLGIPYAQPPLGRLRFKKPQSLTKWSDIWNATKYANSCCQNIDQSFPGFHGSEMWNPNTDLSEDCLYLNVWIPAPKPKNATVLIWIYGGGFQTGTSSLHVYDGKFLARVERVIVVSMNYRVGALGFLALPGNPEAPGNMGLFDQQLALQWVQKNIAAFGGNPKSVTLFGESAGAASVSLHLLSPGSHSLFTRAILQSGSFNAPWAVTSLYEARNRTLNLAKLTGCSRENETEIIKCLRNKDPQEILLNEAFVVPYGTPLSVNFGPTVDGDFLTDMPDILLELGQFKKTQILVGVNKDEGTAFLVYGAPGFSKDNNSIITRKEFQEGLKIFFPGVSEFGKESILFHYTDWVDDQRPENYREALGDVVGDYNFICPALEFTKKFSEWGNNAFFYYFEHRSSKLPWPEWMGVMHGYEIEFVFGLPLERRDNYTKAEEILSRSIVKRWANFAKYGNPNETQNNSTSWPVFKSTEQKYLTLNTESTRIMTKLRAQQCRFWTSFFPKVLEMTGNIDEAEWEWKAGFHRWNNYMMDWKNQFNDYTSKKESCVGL

| Compound | Inhibition of BChE polymer used to wipe paraoxon-containing beakers (Butyrylcholinesterase) | Color change of urease/m-cresol purple polymer disks (Urease) |
| --- | --- | --- |
| CCOP(=O)(OCC)Oc1ccc([N+](=O)[O-])cc1 [paraoxon, Paraoxon] | complete inhibition |  |
| NC(N)=O [urea] |  | transition from yellow to blue |
